Results: US20220213198A1, “METHOD OF TREATMENT” (The Council of the Queensland Institute of Medical Research, priority 2019, published 2022)

Key:
[1] = molecular target: T1, surface MR1 on mouse tumor cell lines (Mus musculus, UniProt Q8HWB0); experiment: MR1 surface expression on mouse tumor cell lines by flow cytometry; assay type: cell-based; settings: for MR1 cell surface expression: 100 nM, 4 hours
T1 construct: endogenous in cells
Experimental: FIG. 2. Up-regulation of MR1 on B16F10 cells increases lung metastases that is dependent on MAIT cells. (A) The schematic and timeline of expanding MAIT cells from splenocytes derived from C57BL/6 WT mice with IL-2 and 5-OP-RU, for sorting and adoptive transfer into tumor-bearing mice. (B, C) Groups of WT or MR1^−/− or Rag2cγ^−/− mice (n=5-6/group) were injected i.v. with (B) 1×10^5 or (C) 1×10^4 B16F10 melanoma cells. In some groups, sorted MAIT or T conventional cells (cT) (non-MAIT αβ^+ T cells) (2×10^5 cells/mouse) from C57BL/6 (B) WT or (C) TCRδ^−/− mice were i.v. injected into the indicated groups of mice one day before tumor inoculation. (C) One group of mice received i.v injection of media alone as a control. (B, C) On day 14 relative to tumor cell inoculation, lungs were harvested and the metastatic burden was quantified by counting colonies on the lung surface. Data presented as mean±SEM. (D) B16F10 or LWT1 melanoma cells were stimulated in vitro with DMSO or 5-OP-RU (100 nM) for 4 hours before cell surface MR1 expression was determined by flow cytometry. Groups of C57BL/6 WT or MR1^−/− mice (n=5-6/group) were i.v. injected with (E) 1×10^5 B16F10 or (F) 5×10^5 LWT1 cells melanoma cells pulsed with DMSO or 5-OP-RU (100 nM, 4 hours). Fourteen days later relative to tumor cell inoculation, lungs were harvested and the metastatic burden was quantified by counting colonies on the lung surface. Data presented as mean±SEM. Experiments performed once for (B, C, F) and three times for (D, E) with one representative experiment shown. Significant differences between groups as indicated by crossbars were determined using a one-way ANOVA followed by Tukey's post-hoc test (B, E, F), *p<0.05, **p<0.01, ****p<0.0001
Naïve or tumor-bearing lung single-cell suspensions were generated as previously described (Blake et al., 2016) and incubated with anti-CD16/32 (2.4G2) to block Fc receptors on ice prior to surface staining with the antibodies. The following antibodies were used for FACs analysis: anti-CD45.2 (104), anti-TCRβ (H57-597), anti-NK1.1 (PK136), anti-NKp46 (29A1.4), anti-CD45R (B220, RA3-6B2), anti-F4/80 (BM8), anti-CD69 (H1.2F3) (all from BioLegend, eBioscience), and MR1 tetramers. For intracellular cytokine staining, cells were surface stained as described above and then fixed and permeabilized with a cytofix/cytoperm kit (BD Biosciences) followed by staining with anti-IFNγ (XMG1.2), anti-TNF (MP6-XT22), anti-IL-17A (TC11-18H10.1) or isotype (eBio299Arm) antibody (all from BioLegend). All data were collected on a Fortessa 4 flow cytometer (BD Biosciences) and analyzed with FlowJo v10 software (TreeStar, Inc.).
(§1) MR1 mRNA transcripts are present in different tissues and cell lines from mice and humans. […] In contrast, whether mouse tumor cell lines express MR1 has not previously been examined. […] Basally, the level of MR1 was almost undetectable on the surface of all tumor cell lines examined (FIG. 2D). […] The kinetics of MR1 upregulation on B16F10 cells was similar to what was previously reported for human C1R cells (B-cell lymphoblastoid cell line) (McWilliam et al., 2016). […] Next, the impact of up-regulation of MR1 on B16F10 or LWT1 prior to i.v injection to WT or MR1−/− mice on the number of lung metastases was assessed.

MR1 on human cell lines = molecular target: T2, MR1 on human cell lines (Homo sapiens, UniProt Q95460); experiment: MR1 surface expression on human cell lines after ligand incubation; assay type: cell-based; settings: range of human cell lines, after incubation (not shown)
T2 construct: endogenous in cells
From the text: as §1

T1 sequence (Q8HWB0 19-341): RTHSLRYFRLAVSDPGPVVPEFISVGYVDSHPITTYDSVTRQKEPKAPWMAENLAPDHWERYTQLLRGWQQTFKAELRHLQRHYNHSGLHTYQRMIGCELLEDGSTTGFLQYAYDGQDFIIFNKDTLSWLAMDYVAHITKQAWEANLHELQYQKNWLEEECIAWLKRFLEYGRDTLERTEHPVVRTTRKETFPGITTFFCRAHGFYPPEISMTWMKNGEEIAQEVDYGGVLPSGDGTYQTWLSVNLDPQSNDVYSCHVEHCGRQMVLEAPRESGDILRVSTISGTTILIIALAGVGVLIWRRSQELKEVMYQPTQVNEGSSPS
T1 sequence (P01887 21-119 partner): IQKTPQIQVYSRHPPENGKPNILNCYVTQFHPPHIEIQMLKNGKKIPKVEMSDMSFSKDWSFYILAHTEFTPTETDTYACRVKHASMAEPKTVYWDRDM
T2 sequence (Q95460 23-341): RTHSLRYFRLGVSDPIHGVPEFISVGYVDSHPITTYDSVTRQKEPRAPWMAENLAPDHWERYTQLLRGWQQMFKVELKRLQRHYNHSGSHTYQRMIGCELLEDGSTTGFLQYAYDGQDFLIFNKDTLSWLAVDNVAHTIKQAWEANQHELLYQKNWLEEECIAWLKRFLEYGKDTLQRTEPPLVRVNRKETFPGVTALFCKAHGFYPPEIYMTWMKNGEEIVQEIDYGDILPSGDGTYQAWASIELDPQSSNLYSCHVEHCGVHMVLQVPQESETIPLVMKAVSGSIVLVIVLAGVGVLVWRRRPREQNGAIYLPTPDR

## CC(=O)C=Nc1c(NC[C@H](O)[C@H](O)[C@H](O)CO)[nH]c(=O)[nH]c1=O [5-OP-RU]
[1]; B16F10, dose titration
  lowest ligand concentration that upregulated MR1: 10 nM
[1]; B16F10 melanoma cells
  MR1 cell surface expression: substantially upregulated
[1]; LWT1 melanoma cells
  MR1 cell surface expression: substantially upregulated
[1]; MC38 parental or OVA, HcMel3, HcMel12, SM1WT1, MCA1956 cells
  MR1 cell surface expression: upregulated to a varying extent
[1]; RM-1, 4T1.2 or 3LL carcinoma cells
  MR1 cell surface expression: not upregulated
MR1 on human cell lines
  MR1 expression: became upregulated
